How the values were obtained:
Format in all cases: functional
[1] = system: SK-MEL-5; experiment: Antiproliferative activity against human SK-MEL-5 cells assessed as cell growth at 5 uM by SRB assay; conditions: read-out: Activity
[2] = system: U-251; experiment: Antiproliferative activity against human U251 cells assessed as cell growth at 5 uM by SRB assay; conditions: read-out: Activity
[3] = system: SF-268; experiment: Antiproliferative activity against human SF268 cells assessed as cell growth at 5 uM by SRB assay; conditions: read-out: Activity
[4] = system: HCC 2998; experiment: Antiproliferative activity against human HCC2998 cells assessed as cell growth at 0.5 uM by SRB assay; conditions: read-out: Activity
[5] = system: MCF7; experiment: Antiproliferative activity against human MCF7 cells assessed as cell growth at 0.5 uM by SRB assay; conditions: read-out: Activity
[6] = system: HCC 2998; experiment: Antiproliferative activity against human HCC2998 cells assessed as cell growth at 500 uM by SRB assay; conditions: read-out: Activity
[7] = system: EKVX; experiment: Antiproliferative activity against human EKVX cells assessed as cell growth at 50 uM by SRB assay; conditions: read-out: Activity
[8] = system: UACC-62; experiment: Antiproliferative activity against human UACC62 cells assessed as cell growth at 5 uM by SRB assay; conditions: read-out: Activity
[9] = system: EKVX; experiment: Antiproliferative activity against human EKVX cells assessed as cell growth at 0.5 uM by SRB assay; conditions: read-out: Activity
[10] = system: UO-31; experiment: Antiproliferative activity against human UO31 cells by SRB assay
[11] = system: SW-620; experiment: Antiproliferative activity against human SW620 cells assessed as cell growth at 50 uM by SRB assay; conditions: read-out: Activity
[12] = system: MOLT-4; experiment: Antiproliferative activity against human MOLT4 cells assessed as cell growth at 5 mM by SRB assay; conditions: read-out: Activity
[13] = system: A498; experiment: Antiproliferative activity against human A498 cells assessed as cell growth at 500 uM by SRB assay; conditions: read-out: Activity
[14] = system: OVCAR-3; experiment: Antiproliferative activity against human OVCAR-3 cells assessed as cell growth at 5 uM by SRB assay; conditions: read-out: Activity
[15] = system: RXF 393; experiment: Antiproliferative activity against human RXF393 cells assessed as cell growth at 50 uM by SRB assay; conditions: read-out: Activity
[16] = system: RXF 393; experiment: Antiproliferative activity against human RXF393 cells assessed as cell growth at 500 uM by SRB assay; conditions: read-out: Activity
[17] = system: CAKI-1; experiment: Antiproliferative activity against human Caki1 cells assessed as cell growth at 500 uM by SRB assay; conditions: read-out: Activity
[18] = system: DU-145; experiment: Antiproliferative activity against human DU145 cells assessed as cell growth at […] by SRB assay; conditions: read-out: Activity
[19] = system: RXF 393; experiment: Antiproliferative activity against human RXF393 cells assessed as cell growth at 5 uM by SRB assay; conditions: read-out: Activity
[20] = system: OVCAR-8; experiment: Antiproliferative activity against human OVCAR8 cells assessed as cell growth at 5 uM by SRB assay; conditions: read-out: Activity
[21] = system: IGROV-1; experiment: Antiproliferative activity against human IGROV1 cells assessed as cell growth at 500 uM by SRB assay; conditions: read-out: Activity
[22] = system: HOP-62; experiment: Antiproliferative activity against human HOP62 cells assessed as cell growth at 0.5 uM by SRB assay; conditions: read-out: Activity
[23] = system: SF-295; experiment: Antiproliferative activity against human SF295 cells by SRB assay
[24] = system: SN12C; experiment: Antiproliferative activity against human SN12C cells by SRB assay
[25] = system: SF-539; experiment: Antiproliferative activity against human SF539 cells assessed as cell growth at 50 uM by SRB assay; conditions: read-out: Activity
[26] = system: T47D; experiment: Antiproliferative activity against human T47D cells by SRB assay
[27] = system: Malme-3M; experiment: Antiproliferative activity against human MALME-3M cells assessed as cell growth at 500 uM by SRB assay; conditions: read-out: Activity
[28] = system: IGROV-1; experiment: Antiproliferative activity against human IGROV1 cells assessed as cell growth at 0.5 uM by SRB assay; conditions: read-out: Activity
[29] = system: UACC-257; experiment: Antiproliferative activity against human UACC257 cells by SRB assay
[30] = system: SK-MEL-2; experiment: Antiproliferative activity against human SK-MEL-2 cells by SRB assay
[31] = system: A498; experiment: Antiproliferative activity against human A498 cells assessed as cell growth at 5 uM by SRB assay; conditions: read-out: Activity
[32] = system: SR; experiment: Antiproliferative activity against human SR cells assessed as cell growth at 0.5 uM by SRB assay; conditions: read-out: Activity
[33] = system: 786-0; experiment: Antiproliferative activity against human 786-0 cells assessed as cell growth at 50 uM by SRB assay; conditions: read-out: Activity
[34] = system: BT-549; experiment: Antiproliferative activity against human BT549 cells assessed as cell growth at 50 uM by SRB assay; conditions: read-out: Activity
[35] = system: A549; experiment: Antiproliferative activity against human A549 cells assessed as cell growth at 500 uM by SRB assay; conditions: read-out: Activity
[36] = system: CAKI-1; experiment: Antiproliferative activity against human Caki1 cells assessed as cell growth at 5 uM by SRB assay; conditions: read-out: Activity
[37] = system: OVCAR-8; experiment: Antiproliferative activity against human OVCAR8 cells assessed as cell growth at 500 uM by SRB assay; conditions: read-out: Activity
[38] = system: UO-31; experiment: Antiproliferative activity against human UO31 cells assessed as cell growth at 500 uM by SRB assay; conditions: read-out: Activity
[39] = system: NCI-H226; experiment: Antiproliferative activity against human NCI-H226 cells assessed as cell growth at 5 uM by SRB assay; conditions: read-out: Activity
[40] = system: MDA-MB-435; experiment: Antiproliferative activity against human MDA-MB-435 cells by SRB assay
[41] = system: SK-MEL-5; experiment: Antiproliferative activity against human SK-MEL-5 cells assessed as cell growth at 0.5 uM by SRB assay; conditions: read-out: Activity
[42] = system: SN12C; experiment: Antiproliferative activity against human SN12C cells assessed as cell growth at 5 uM by SRB assay; conditions: read-out: Activity
[43] = read-out: LC50 (the source's name)
[44] = read-out: pLC50 (the source's name) (converted)

For `O=C(/C=C/c1ccc(O)c(O)c1)OCCc1ccc(O)c(O)c1`, the growth at 5 µM [1] was 97%, the growth at 5 µM [2] was 97% and the growth at 5 µM [3] was 91%. The growth at 0.5 µM [4] was 93%, the growth at 0.5 µM [5] was 94% and the growth at 500 µM [6] was 80%. It also gave a growth at 50 µM [7] of 88%, a growth at 5 µM [8] of 94% and a growth at 0.5 µM [9] of 88%. The GI50 ([10]; read-out: GI50) was 1.75 µM, the CC50 [10, 43] was over 50 µM and the TGI ([10]; read-out: TGI) was 21.1 µM. For the same compound, the GI50 ([10]; read-out: pGI50 (converted)) was 1.66 µM, the CC50 [10, 44] was over 50.1 µM and the TGI ([10]; read-out: pTGI (converted)) was 20.9 µM. The growth at 50 µM [11] was 98%, the growth at 5000 µM [12] was 4% and the growth at 500 µM [13] was 68%. The growth at 5 µM [14] was 99%, the growth at 50 µM [15] was 135% and the growth at 500 µM [16] was 89%. The growth at 500 µM [17] was 68%, the growth [18] was -22% and the growth at 5 µM [19] was 84%. The growth at 5 µM [20] was 79%, the growth at 500 µM [21] was 35% and the growth at 0.5 µM [22] was 92%. For the same compound, the GI50 ([23]; read-out: GI50) was 16.1 µM, the CC50 [23, 43] was over 50 µM and the TGI ([23]; read-out: TGI) was over 50 µM. The GI50 ([23]; read-out: pGI50 (converted)) was 16.2 µM, the CC50 [23, 44] was over 50.1 µM and the TGI ([23]; read-out: pTGI) was over 50.1 µM. For the same compound, the GI50 ([24]; read-out: GI50) was 9.09 µM, the CC50 [24, 43] was over 50 µM and the TGI ([24]; read-out: TGI) was over 50 µM. The GI50 ([24]; read-out: pGI50 (converted)) was 9.12 µM, the CC50 [24, 44] was over 50.1 µM and the TGI ([24]; read-out: pTGI) was over 50.1 µM. It also gave a growth at 50 µM [25] of 89%, a GI50 ([26]; read-out: GI50) of 11.3 µM and a CC50 [26, 43] of over 50 µM. It also gave a TGI ([26]; read-out: TGI) of over 50 µM, a GI50 ([26]; read-out: pGI50 (converted)) of 11.2 µM and a CC50 [26, 44] of over 50.1 µM. For the same compound, the TGI ([26]; read-out: pTGI) was over 50.1 µM, the growth at 500 µM [27] was 74% and the growth at 0.5 µM [28] was 112%. It also gave a GI50 ([29]; read-out: GI50) of 15.4 µM, a CC50 [29, 43] of over 50 µM and a TGI ([29]; read-out: TGI) of over 50 µM. The GI50 ([29]; read-out: pGI50 (converted)) was 15.5 µM, the CC50 [29, 44] was over 50.1 µM and the TGI ([29]; read-out: pTGI) was over 50.1 µM. The GI50 ([30]; read-out: GI50) was 3.02 µM, the CC50 [30, 43] was over 50 µM and the TGI ([30]; read-out: TGI) was 23.7 µM. The GI50 ([30]; read-out: pGI50 (converted)) was 3.02 µM, the CC50 [30, 44] was over 50.1 µM and the TGI ([30]; read-out: pTGI (converted)) was 23.4 µM. For the same compound, the growth at 5 µM [31] was 81%, the growth at 0.5 µM [32] was 92% and the growth at 50 µM [33] was 94%. It also gave a growth at 50 µM [34] of 97%, a growth at 500 µM [35] of 96% and a growth at 5 µM [36] of 83%. For the same compound, the growth at 500 µM [37] was 64%, the growth at 500 µM [38] was 23% and the growth at 5 µM [39] was 99%. For the same compound, the GI50 ([40]; read-out: GI50) was 4.01 µM, the CC50 [40, 43] was over 50 µM and the TGI ([40]; read-out: TGI) was over 50 µM. It also gave a GI50 ([40]; read-out: pGI50 (converted)) of 3.98 µM, a CC50 [40, 44] of over 50.1 µM and a TGI ([40]; read-out: pTGI) of over 50.1 µM. The growth at 0.5 µM [41] was 97% and the growth at 5 µM [42] was 80%.
